# Results reported in US20240033244A1, “COMPOSITIONS AND METHODS FOR INHIBITING YTHDF1” (SHANGHAI INSTITUTE OF MATERIA MEDICA, CHINESE ACADEMY OF …, priority 2020, published 2024).
# Columns and labels:
# [1] = system: draining lymph node T cells; experiment: Draining lymph node T cell IFN-γ after OT1 peptide stimulation; assay type: in vivo, mouse; conditions: 1 μg/mL OT1 peptide
# Procedure: Tumor infiltrating leukocytes were resuspended by RPMI 1640 medium at 5×10^6 per mL in 96-well plates. Phorbol-12-myristate-13-acetate (PMA) (2.5 μg/mL) and ionomycin (0.5 μg/mL) were used to stimulate T cells together with brefeldin A were added to the culture medium for 2 hours at 37° C. Cell concentration of total lymphocytes from draining lymph node was adjusted to 5×10^6 per mL in 96-well plate. 1 μg/mL OT-1 (OVA 257-264) peptide was added to the wells and stimulated for 96 hours. Samples were stained with CD45 and CD8 on ice for 30 min. Intracellular staining was performed to quantify IFN-γ and granzyme B production.
# Then, lymphocytes from draining lymph node were isolated and stimulated with 1 μg/mL OT1 peptide, and IFN-γ producing cell were analyzed by FACS.
# [2] = system: tumor infiltrating T cells; experiment: Flow cytometry of exhaustion markers on tumor infiltrating T cells; assay type: in vivo, mouse; conditions: 14 days after tumor inoculation
# Procedure: For flow cytometry analysis and DCs sorting, tumors, draining lymph nodes were gathered from mice and digested with 100 U/mL collagenase IV and 20 μg/mL DNase I at 37° C. for 40 min. Digestion was stopped by FACS buffer (PBS contains 2% FBS and 1 mM EDTA) and samples were filtered through 70-μm cell strainer. Samples were stained by specific antibodies in FACS buffer on ice for 30 min. Antibody information was described in Table 1 below. All samples were washed with FACS buffer after staining, cells were analyzed on BD Fortessa and sorted by AriaIII.
# In addition, terminally exhausted T cells (PD-1 and Tim-3 double positive cells) were assessed 14 days after tumor inoculation with SAA treatment, and it was observed that the frequency of these tumor infiltrating terminally exhausted T cells (PD-1^+Tim-3^+) decreased in SAA treated mice (FIG. 18b), confirming the enhanced anti-tumor activity.
# B16-OVA tumor cells = experiment: B16-OVA tumor cell proliferation in vitro; assay type: cell-based, mouse; conditions: 5×10^4 B16-OVA cells, various doses, 12 hours
# Procedure: In a further experiment, tumor cells were treated with SAA in vitro. Briefly, 5×10^4 B16-OVA tumor cells were treated with SAA of various doses respectively in a 96-well plate. Cell number was counted 12 hours after said SAA treatment.
# YTHDF1 in 293T cells = biological target: T1, YTHDF1 in 293T cells (Homo sapiens, UniProt Q9BYJ9); experiment: Cellular thermal shift assay (CETSA) in 293T cells; assay type: cell-based; conditions: 100 μM SAA for 4 hours
# T1 construct: endogenous in cells; host or cells: 293T (ATCC)
# Procedure: The cellular thermal shift assay (CETSA) was conducted according to the protocol reported previously. 293T cell line (ATCC) used in the assay was cultured at 37° C., 5% CO2, in DMEM culture medium (Life Technologies) containing 10% fetal calf serum (Gibco, U.S.A.), 1% penicillin/streptomycin (Life Technologies). 293T cells were collected after incubated with PBS buffer as control or 100 μM SAA for 4 hours and equally divided into twelve parts, respectively. The divided parts were heated under series of temperature range from 39° C. to 59° C. for 3 minutes and cooled at 4° C. for 3 minutes immediately. Then, the cells were lysed via freeze-thawing with liquid nitrogen and the protein samples were collected by centrifugation. Though adding in SDS loading and boiling at 99° C. for 5 minutes, the samples were prepared for western blot detection. In the western blot assays, GAPDH was used as the internal reference. And the quantitative analysis of the results of the assay was performed via ImageJ software.
# Further, the binding of SAA to YTHDF1 in cells was also examined. Cellular thermal shift (CETSA) assay was performed with 293T cell line, which was collected for heating at temperatures as indicated. After incubating the cells with 100 μM SAA for 4 hours, YTHDF1 protein in the incubated 293T cells were examined with western blot. […]
# YTHDF1 mutant F382A = biological target: T2, YTHDF1 mutant F382A (Homo sapiens, UniProt Q9BYJ9, F382A); experiment: FP assay with YTHDF1 mutant F382A; assay type: binding
# T2 construct: GST (N, cleaved yes); made in house; host or cells: E. coli BL21 (DE3)
# Procedure: The protein YTHDF1 (361-559) (SEQ ID NO: 2) and its mutants (SEQ ID NOs: 4-13) were cloned into pGEx-6P-1 vector (obtained from YouBio Co, Ltd, Catalog NO: VT1258), and the His-YTHDF1 (361-559) (SEQ ID NO: 3) used in AlphaScreen Assay was cloned into modified pET28a vector (obtained from YouBio Co, Ltd, Catalog NO: VT1207). The vectors were transformed into E. coli BL21 (DE3) cells and cultured at 37° C. When OD value reached 0.6˜0.8, 1 mM Isopropyl-β-D-thiogalactopyranoside was added to overexpress the protein at 16° C. overnight. […] Then, the proteins were further purified via cation exchange (HiTrap SP, GE Healthcare) and finally through a Superdex 75 10/300 column (GE Healthcare). At last, the purified YTHDF1(361-559) and the mutants were kept in buffer which contains 20 mM Hepes (pH 7.4) and 200 mM NaCl. For His-YTHDF1 (361-559), the protein was purified via Ni-NTA chromatography (HisTrap FF, GE Healthcare), followed by cation exchange and Superdex 75 10/300 column in sequence. And the obtained protein was kept in the buffer with the same ingredients.
# All of the YTHDF1 (361-559), the 5′-FAM labeled m^6A-containing mRNA (5′-FAM-[…] (m^6A) CUGUG-3′, SEQ ID NO: 14) and the candidate compounds were diluted with assay buffer (20 mM Hepes (pH 7.4), 50 mM NaCl, 0.01% (v/v) tween 20, 5% (v/v) glycerol). […] At last, the mixtures were measured by Envision Readers (PerkinElmer). […]
# T1 sequence (Q9BYJ9 whole entry): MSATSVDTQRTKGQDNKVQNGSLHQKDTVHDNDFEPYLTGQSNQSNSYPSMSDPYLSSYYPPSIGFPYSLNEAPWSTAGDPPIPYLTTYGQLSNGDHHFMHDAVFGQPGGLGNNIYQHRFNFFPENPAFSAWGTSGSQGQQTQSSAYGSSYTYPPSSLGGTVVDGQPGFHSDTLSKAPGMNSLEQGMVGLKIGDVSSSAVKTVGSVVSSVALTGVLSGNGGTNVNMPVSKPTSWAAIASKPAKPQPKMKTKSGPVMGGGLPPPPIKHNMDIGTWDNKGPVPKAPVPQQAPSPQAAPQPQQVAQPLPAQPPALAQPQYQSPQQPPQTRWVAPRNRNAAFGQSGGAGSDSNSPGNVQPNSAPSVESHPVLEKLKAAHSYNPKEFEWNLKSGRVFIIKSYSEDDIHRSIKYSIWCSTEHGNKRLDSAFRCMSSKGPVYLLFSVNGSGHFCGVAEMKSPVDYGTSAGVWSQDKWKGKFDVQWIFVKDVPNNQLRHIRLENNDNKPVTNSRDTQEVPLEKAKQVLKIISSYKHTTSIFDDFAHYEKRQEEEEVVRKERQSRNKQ
# T2 sequence (Q9BYJ9 with tags, fused parts or gaps F382A): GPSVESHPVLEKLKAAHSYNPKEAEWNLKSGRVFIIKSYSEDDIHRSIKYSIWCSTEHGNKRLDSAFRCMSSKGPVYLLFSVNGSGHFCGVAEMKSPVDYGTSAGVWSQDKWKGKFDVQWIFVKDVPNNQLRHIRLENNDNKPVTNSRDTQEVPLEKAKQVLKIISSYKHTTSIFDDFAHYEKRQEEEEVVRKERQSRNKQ
structure (smiles),measurement,setting,value
"O=C(/C=C/c1ccc(O)c(O)c1/C=C/c1ccc(O)c(O)c1)O[C@H](Cc1ccc(O)c(O)c1)C(=O)O [SAA, Salvianolic Acid A]",IFN-γ production by DLN T cells,[1],much more IFN-γ than DMSO group
same,CXCR5 expression of PD-1low population,[2],much more CXCR5 than DMSO group
same,frequency of tumor infiltrating terminally exhausted T cells (PD-1+Tim-3+),[2],decreased
same,proliferation of tumor cells (cell number),B16-OVA tumor cells,not affected
same,CETSA curve shift to the right (YTHDF1 stability),YTHDF1 in 293T cells,about 2 degrees
same,inhibitory activity against mutant binding to m6A versus wildtype,YTHDF1 mutant F382A,significantly weaker than that against wildtype YTHDF1
